Assay results published in US9073813B2, “Process for the preparation of protoescigenin” (INSTYTUT FARMACEUTYCZNY, priority 2011, dated 2015).

Test: Thermal stability of the crystalline form (X-ray diffraction over temperature loop 25° C.→30 min at 110° C.→25° C.)
Assay type: physicochemical
Protocol: Protoescigenin monohydrate is stable under ambient conditions, up to 100° C. X-ray diffraction measurements of monohydrate were done at the following temperature loop: 25° C.→30 min at 110° C.→25° C.
X-ray powder diffraction (XRPD) studies were performed by means of the MiniFlex diffractometer (Rigaku Coporation, Tokyo Japan) using CuKα radiation (λ=1.54056 Å) with following parameters: • Scanning range 2θ: from 3° to 40° • Scanning speed: 0.5°/min • Measurement step: 2θ: 0.02° • Measurement temperature: ambient temperature • Detector: scintillator

- stable under ambient conditions, up to (temperature) (solid state, ambient conditions): up to 100 °C
SMILES: CC1(C)CC2C3=CCC4[C@@]5(C)CC[C@H](O)[C@](C)(CO)C5CC[C@@]4(C)[C@]3(C)C[C@@H](O)[C@@]2(CO)[C@@H](O)[C@@H]1O (some centres unmarked) [Protoescigenin monohydrate, protoescigenin monohydrate]
- form change on heating (X-ray diffraction) (after heating for 30 min at 110° C., loop 25° C.→110° C.→25° C.): changes to a different form, called form V
